Measurements as given in patent publication US10781224B2, “Bis(oxymethyl)phosphinic acid and biogenic metal salts thereof as regulators of plant growth and development” (priority 2016, dated 2020).

Legend:
[1] = tested on: winter wheat (Vershin variety); experiment: Winter wheat seed treatment with BHMPA salts: germination energy and germination rate; type: in vivo
Protocol: Control—Soaking Seeds in Water;
(§1) Experimental versions—soaking seeds in BHMPA solutions and solutions of BHMPA Ca, Mg, Na, Co, Mn, Cu, and Zn salts at 1·10^−6-1·10^−12% concentrations (doses). The studies were conducted in laboratory in Petri dishes; seed bed—two layers of filter paper. 50 seeds soaked in water (control) and in the solutions of the tested compounds (experimental) were placed into each dish. Wheat, corn, and rice seeds were exposed for one hour.
Analysis was conducted according to the government standards GOST 12038-84 “Crop seeds. Technical conditions for determining the germination energy and germination rate”, GOST 12044-93 “Crop seeds. Methods for determining disease contamination.”
(§2) Seed germination energy and rate were calculated in percent as an arithmetic mean of the four experimental results (germination energy on the 4th day, wheat germination on the 8th day, rice and corn germination—on the 7th day). Germination was determined based on the germinating power indicators (length of the roots and sprouts and their wet and dry mass per 100 shoots).
(§3) The effect of pre-sowing seed treatment with the claimed BHMPA salts of biogenic metals was studied on winter wheat (Vershin variety), corn (Krasnodar 385 MV variety), and rice (Diamant variety).

[2] = tested on: corn (Krasnodar 385 MV variety); experiment: Corn seed treatment with BHMPA salts: germinating power; type: in vivo
Protocol: as §1, §2, §3
The above data describe the seed viability only at the initial stage of germination, while the germination ability at the later stage of germination is defined by the initial germinating power. The method for the determination of the germinating power comprises measuring the height of the sprouts and primary roots, as well as the biomass and the dry mass thereof per 100 seedlings. [M. A. Kartuzova. Initial Germinating Power as Method of Biological Assessment of Seed Quality. Selection and Seed Farming, #2, 1953].

[3] = winter wheat Vershin, 1·10^−6% solution
[4] = winter wheat Vershin, 1·10^−7% solution
[5] = winter wheat Vershin, 1·10^−8% solution
[6] = winter wheat Vershin, 1·10^−9% solution
[7] = winter wheat Vershin, 1·10^−10% solution
[8] = winter wheat Vershin, 1·10^−11% solution
[9] = winter wheat Vershin, 1·10^−12% solution
[10] = winter wheat, comparative study vs Melaphen, 1·10^−10% solution
[11] = corn seeds, solution concentration 1 · 10^−6%, cobalt salt of BHMPA
[12] = corn seeds, solution concentration 1 · 10^−7%, cobalt salt of BHMPA
[13] = corn seeds, solution concentration 1 · 10^−8%, cobalt salt of BHMPA
[14] = corn seeds, solution concentration 1 · 10^−9%, cobalt salt of BHMPA
[15] = corn seeds, solution concentration 1 · 10^−10%, cobalt salt of BHMPA
[16] = corn seeds, solution concentration 1 · 10^−11%, cobalt salt of BHMPA
[17] = corn seeds, solution concentration 1 · 10^−12%, cobalt salt of BHMPA

O.O.O=P([O-])(CO)CO.O=P([O-])(CO)CO.[Co+2] [Co-salt, Cobalt BHMPA Salt]
Germination energy [1, 3]: 89.2%
Germination rate [1, 3]: 93.0%
Germination energy [1, 4]: 91.4%
Germination rate [1, 4]: 94.0%
Germination energy [1, 5]: 92.8%
Germination rate [1, 5]: 96.0%
Germination energy [1, 6]: 94.3%
Germination rate [1, 6]: 97.3%
Germination energy [1, 7]: 95.6%
Germination rate [1, 7]: 98.7%
Germination energy [1, 8]: 94.7%
Germination rate [1, 8]: 97.3%
Germination energy [1, 9]: 92.0%
Germination rate [1, 9]: 94.7%
Germination energy [1, 10]: 93.7%
Germination rate [1, 10]: 97.3%
optimum concentration for treating corn seeds before sowing ([2]; corn): 1·10^−7%
Length, root [2, 11]: 5.0 cm
Length, root, + % to control [2, 11]: 6%
Length, sprout [2, 11]: 3.2 cm
Length, sprout, + % to control [2, 11]: 7%
Mass, dry, root [2, 11]: 1.31 g/100 plantlings
Mass, dry, root, + % to control [2, 11]: 5%
Mass, dry, sprout [2, 11]: 1.09 g/100 plantlings
Mass, dry, sprout, + % to control [2, 11]: 12%
Mass, wet, root [2, 11]: 9.76 g/100 plantlings
Mass, wet, root, + % to control [2, 11]: 9%
Mass, wet, sprout [2, 11]: 7.75 g/100 plantlings
Mass, wet, sprout, + % to control [2, 11]: 24.5%
Length, root [2, 12]: 6.2 cm
Length, root, + % to control [2, 12]: 32%
Length, sprout [2, 12]: 3.8 cm
Length, sprout, + % to control [2, 12]: 27%
Mass, dry, root [2, 12]: 1.44 g/100 plantlings
Mass, dry, sprout [2, 12]: 1.21 g/100 plantlings
Mass, dry, sprout, + % to control [2, 12]: 25%
Mass, wet, root [2, 12]: 10.77 g/100 plantlings
Mass, wet, root, + % to control [2, 12]: 20%
Mass, wet, sprout [2, 12]: 9.96 g/100 plantlings
Mass, wet, sprout, + % to control [2, 12]: 60%
Length, root [2, 13]: 5.6 cm
Length, root, + % to control [2, 13]: 19%
Length, sprout [2, 13]: 3.6 cm
Length, sprout, + % to control [2, 13]: 20%
Mass, dry, root [2, 13]: 1.37 g/100 plantlings
Mass, dry, root, + % to control [2, 13]: 10%
Mass, dry, sprout [2, 13]: 1.14 g/100 plantlings
Mass, dry, sprout, + % to control [2, 13]: 17.5%
Mass, wet, root [2, 13]: 10.17 g/100 plantlings
Mass, wet, root, + % to control [2, 13]: 13%
Mass, wet, sprout [2, 13]: 9.00 g/100 plantlings
Mass, wet, sprout, + % to control [2, 13]: 45%
Length, root [2, 14]: 5.0 cm
Length, root, + % to control [2, 14]: 6%
Length, sprout [2, 14]: 3.5 cm
Length, sprout, + % to control [2, 14]: 17%
Mass, dry, root [2, 14]: 1.31 g/100 plantlings
Mass, dry, root, + % to control [2, 14]: 5%
Mass, dry, sprout [2, 14]: 1.07 g/100 plantlings
Mass, dry, sprout, + % to control [2, 14]: 10%
Mass, wet, root [2, 14]: 10.00 g/100 plantlings
Mass, wet, root, + % to control [2, 14]: 11%
Mass, wet, sprout [2, 14]: 7.58 g/100 plantlings
Mass, wet, sprout, + % to control [2, 14]: 22%
Length, root [2, 15]: 4.9 cm
Length, root, + % to control [2, 15]: 4%
Length, sprout [2, 15]: 3.3 cm
Length, sprout, + % to control [2, 15]: 10%
Mass, dry, root [2, 15]: 1.29 g/100 plantlings
Mass, dry, root, + % to control [2, 15]: 3%
Mass, dry, sprout [2, 15]: 1.03 g/100 plantlings
Mass, dry, sprout, + % to control [2, 15]: 6%
Mass, wet, root [2, 15]: 9.80 g/100 plantlings
Mass, wet, root, + % to control [2, 15]: 9%
Mass, wet, sprout [2, 15]: 6.75 g/100 plantlings
Mass, wet, sprout, + % to control [2, 15]: 8.5%
Length, root [2, 16]: 4.5 cm
Length, root, + % to control [2, 16]: −4%
Length, sprout [2, 16]: 3.0 cm
Length, sprout, + % to control [2, 16]: 0%
Mass, dry, root [2, 16]: 1.27 g/100 plantlings
Mass, dry, root, + % to control [2, 16]: 2%
Mass, dry, sprout [2, 16]: 0.98 g/100 plantlings
Mass, dry, sprout, + % to control [2, 16]: 1%
Mass, wet, root [2, 16]: 9.62 g/100 plantlings
Mass, wet, root, + % to control [2, 16]: 7%
Mass, wet, sprout [2, 16]: 6.41 g/100 plantlings
Mass, wet, sprout, + % to control [2, 16]: 3%
Length, root [2, 17]: 4.2 cm
Length, root, + % to control [2, 17]: −11%
Length, sprout [2, 17]: 2.9 cm
Length, sprout, + % to control [2, 17]: −3%
Mass, dry, root [2, 17]: 1.22 g/100 plantlings
Mass, dry, root, + % to control [2, 17]: −2%
Mass, dry, sprout [2, 17]: 0.98 g/100 plantlings
Mass, dry, sprout, + % to control [2, 17]: 1%
Mass, wet, root [2, 17]: 9.28 g/100 plantlings
Mass, wet, root, + % to control [2, 17]: 3%
Mass, wet, sprout [2, 17]: 6.23 g/100 plantlings
Mass, wet, sprout, + % to control [2, 17]: 0%
Length, root, + % to control ([2]; corn, 1·10^−7% solution): 32%
Length, sprout, + % to control ([2]; corn, 1·10^−7% solution): 27%
Mass, dry, root, + % to control ([2]; corn, 1·10^−7% solution): 15%
Mass, dry, sprout, + % to control ([2]; corn, 1·10^−7% solution): 25%
Mass, wet, root, + % to control ([2]; corn, 1·10^−7% solution): 20%
Mass, wet, sprout, + % to control ([2]; corn, 1·10^−7% solution): 60%
germination intensity vs control ([2]; corn, 1·10^−11% and 1·10^−12% solutions): no increase in the germination intensity
